Measurements as given in patent US20250122455A1, “INTEGRATED SYSTEM FOR MULTIPLE CULTIVATIONS OF A BIOLOGICAL AGENT AND METHODS OF USE THEREOF” (The Hong Kong Polytechnic University, priority 2023, published 2025).

Assays:
P. aeruginosa biofilms = format: cell-based, Pseudomonas aeruginosa
PAO1 static biofilms = assay: Alamar blue viability of static biofilms in the BDR device after antibiotic treatment; format: cell-based, Pseudomonas aeruginosa
Experimental: The PAO1 culture was diluted 100-fold in ABTGC media and inoculated at 100 μl into each channel of the microfluidic model using a syringe and needle. Then the model was placed in a 37° C. incubator for 20 mins to allow bacteria to colonize the bottom of the microwells. ABTGC media containing tobramycin (Sigma) with concentrations of 0, 0.625, 1.25, 2.5, 5 ug/ml were injected into each chamber for 12 hrs treatment. Alamar blue cell viability reagent (Thermo Fisher) was diluted with culture media to 10% and injected into chambers, then incubated at 37° C. until the color changed from blue to pink. The colored liquid was collected from the chamber for direct measurement of OD600 nm and fluorescence (Ex: 560 nm, Em: 590 nm) using a microplate reader (Thermo Scientific Varioskan LUX Multimode Microplate Reader).

Molecule | Biofilm biomass change during EDA (P. aeruginosa biofilms) | Fluorescence level of Alamar blue (PAO1 static biofilms; increasing tobramycin 0-5 ug/ml, 12 hrs treatment, without continuous flow, FIG. 22A) | Bacterial numbers (viable cell populations) (PAO1 static biofilms; increasing tobramycin, static biofilms, FIG. 22B)
cellulase | continuous reduction of biofilm from top to bottom of the microwells |  | 
NC[C@H]1O[C@H](O[C@H]2[C@H](O)[C@@H](O[C@H]3O[C@H](CO)[C@@H](O)[C@H](N)[C@H]3O)[C@H](N)C[C@@H]2N)[C@H](N)C[C@@H]1O [tobramycin] |  | decreased | reducing bacterial numbers
